The test system of assay [1] is P388. The assay is described as follows: Antitumor activity against mouse P388 cells in iv dosed in vivo system. Format: functional, organism-based.
Assay [2] has as its system Enterococcus faecalis. In words: Antimicrobial activity against Enterococcus faecalis A20688 by serial twofold dilution method. The format is functional.
Assay [3] has as its system Enterococcus faecalis. In words: Antimicrobial activity against Enterococcus faecalis A25707 by serial twofold dilution method. The format is functional.
The test system of assay [4] is Enterococcus faecalis. In words: Antimicrobial activity against Enterococcus faecalis A25708 by serial twofold dilution method. Format: functional.
The test system of assay [5] is Staphylococcus aureus. In words: Antimicrobial activity against Staphylococcus aureus A9537 by serial twofold dilution method. Format: functional.
In assay [6] the test system is Staphylococcus aureus. The assay is described as follows: Antimicrobial activity against Staphylococcus aureus A20698 by serial twofold dilution method. The format is functional.
Assay [7] relates to Staphylococcus aureus. In words: Antimicrobial activity against Staphylococcus aureus A24407 by serial twofold dilution method. Format: functional.
For assay [8], the system named is Escherichia coli. The assay is described as follows: Antimicrobial activity against Escherichia coli A15119 by serial twofold dilution method. Format: functional.
The test system of assay [9] is Escherichia coli. The assay is described as follows: Antimicrobial activity against Escherichia coli A20697 by serial twofold dilution method. The format is functional.
Assay [10] relates to Escherichia coli. In words: Antimicrobial activity against Escherichia coli A9751 by serial twofold dilution method. Format: functional.
Assay [11] has as its system Klebsiella pneumoniae. The assay is described as follows: Antimicrobial activity against Klebsiella pneumoniae A9664 by serial twofold dilution method. The format is functional.
The subject of assay [12] is Klebsiella pneumoniae. In words: Antimicrobial activity against Klebsiella pneumoniae A20468 by serial twofold dilution method. The format is functional.
For a further assay, the system named is Proteus vulgaris. In words: Antimicrobial activity against Proteus vulgaris A21559 by serial twofold dilution method. The format is functional.
Assay [13] has as its system Pseudomonas aeruginosa. In words: Antimicrobial activity against Pseudomonas aeruginosa A9843 by serial twofold dilution method. The format is functional.
The test system of assay [14] is Pseudomonas aeruginosa. The assay is described as follows: Antimicrobial activity against Pseudomonas aeruginosa A20235 by serial twofold dilution method. The format is functional.
Assay [15] relates to P388. In words: In vivo antitumor activity against mouse P388 cells at 1 to 3 ug/kg, ip. Format: functional.
The test system of assay [16] is A549. In words: Cytotoxicity against human A549 cells. The format is functional, cell-based.
For assay [17], the system named is A549. The assay is described as follows: Cytotoxicity against […]-resistant human A549 cells. Format: functional, cell-based.
A further assay concerns HCT-116. The assay is described as follows: Cytotoxicity against human HCT116 cells. Format: functional, cell-based.
A short description of assay [18]: Cytotoxicity against human HCT/VP35 cells. The format is functional, cell-based.
The test system of the next assay is B16. The assay is described as follows: Cytotoxicity against mouse B16-PRIM cells. The format is functional, cell-based.

In brackets after ≈: the same amount, converted by molar mass. Activity calls are given as the source filed them. The calls are words filed in the database; no cut-off is given here.

For orientation: MIC means the lowest concentration found to suppress growth. A high value points to weaker potency. The T/C is the ratio of treated to control. The term IC50 denotes the concentration that inhibits the measured activity by half. A higher IC50 goes with lower potency.

`C=C(OC)C(=O)Nc1cc(OC)c(OC)cc1C(=O)O[C@H]1C[C@H](O[C@@H]2C(=O)C(NC(=O)OC)=C3/C(=C\CSSSC)[C@]2(O)C#C/C=C\C#C[C@@H]3O[C@@H]2O[C@H](C)[C@@H](NO[C@H]3C[C@H](O)[C@H](SC)[C@@H](C)O3)[C@H](O)[C@H]2O[C@H]2C[C@H](OC)[C@@H](NC(C)C)CO2)O[C@@H](C)[C@H]1O`: in the assay on P388 [1], the outcome was Active.
With `C=C(OC)C(=O)Nc1cc(OC)c(OC)cc1C(=O)O[C@H]1C[C@H](O[C@@H]2C(=O)C(NC(=O)OC)=C3/C(=C\CSSSSC)[C@]2(O)C#C/C=C\C#C[C@@H]3O[C@@H]2O[C@H](C)[C@@H](NO[C@H]3C[C@H](O)[C@H](SC)[C@@H](C)O3)[C@H](O)[C@H]2O[C@H]2C[C@H](OC)[C@@H](NC(C)C)CO2)O[C@@H](C)[C@H]1O` [ESPERAMICIN P], the MIC with Enterococcus faecalis [2] stood at 0.002 µg/mL (≈ 1.47 nM); against Enterococcus faecalis [3] it was 0.002 µg/mL (≈ 1.47 nM); with Enterococcus faecalis [4], 0.002 µg/mL (≈ 1.47 nM); in the assay with Staphylococcus aureus [5], 0.001 µg/mL (≈ 0.737 nM); against Staphylococcus aureus [6], 0.001 µg/mL (≈ 0.737 nM); against Staphylococcus aureus [7], 0.001 µg/mL (≈ 0.737 nM). For the same compound, the MIC in the assay on Escherichia coli [8] came to 0.25 µg/mL (≈ 184 nM); in the assay with Escherichia coli [9], 0.25 µg/mL (≈ 184 nM); in the assay with Escherichia coli [10], 0.016 µg/mL (≈ 11.8 nM); against Klebsiella pneumoniae [11] it was 1 µg/mL (≈ 737 nM); against Klebsiella pneumoniae [12], 1 µg/mL (≈ 737 nM); with Proteus vulgaris, 0.13 µg/mL (≈ 95.8 nM). Also, the MIC against Pseudomonas aeruginosa [13] stood at 0.25 µg/mL (≈ 184 nM); in the assay on Pseudomonas aeruginosa [14], 0.13 µg/mL (≈ 95.8 nM). This compound showed a T/C in the assay with P388 [15] of 145%. In addition, in the assay with P388 [1], the outcome was inactive. Also, the IC50 in the assay on A549 [16] was 0.01 µg/mL (≈ 7.37 nM); with A549 [17], 0.01 µg/mL (≈ 7.37 nM); in the assay on HCT-116, less than 0.002 µg/mL; in assay [18] it was less than 0.002 µg/mL; in the assay on B16, greater than 0.002 µg/mL.

(Values after ChEMBL document CHEMBL1149066, “Esperamicin P, the tetrasulfide analog of esperamicin A1” (J Nat Prod, 1994).)
